The values below come from patent publication US20180228804A1, “COMBINATION THERAPY OF HBV AND HDV INFECTION” (MYR GMBH, priority 2014, published 2018).

Experiment [1] deals with HepaRG cells infected with HBV/HDV containing serum. Description: Number of HBcAg-positive HepaRG cells on day 6 post infection by HBcAg-specific IF, Myrcludex B with or without entecavir. Conditions: immunochemistry. It is filed as cell-based.
For a further experiment, the system named is HBV. The note with it: after two years of treatment; cited from earlier work.

The structures appear in SMILES notation.

As to `C=C1[C@H](CO)[C@@H](O)C[C@@H]1n1cnc2c(=O)[nH]c(N)nc21` [entecavir], in experiment [1], the “effect of entecavir on the inhibition of HBV receptor by Myrcludex B in vitro” value is reported as “did not improve”.

For the molecule `C[C@H](Cn1cnc2c(N)ncnc21)OCP(=O)(O)O` [tenofovir], in the experiment with HBV, the HBsAg seroconversion was 4 % of patients.
